These results are taken from patent US20260355171A1, “INHIBITORS AND USES THEREFOR” (priority 2022, published 2026).

One series has as its system primary neurons. Put plainly: Effect of compounds on neuronal cell death caused by NSP5 (Example 6). The class given is cell-based, mouse. The settings on record: 10 μM, 48 hours.
The nature of series [1]: Mouse pharmacokinetics, IP administration. The class given is in vivo. On the procedure:
Pharmacokinetic parameters of compound 22 (prepared in accordance with Example 2) were determined following intravenous (IV, 3 mg/kg) and intraperitoneal (IP, 10 mg/kg) administration to male C57BL/6 mice.
IV and IP formulations were prepared separately by dissolving solid compound 22 in dimethyl sulfoxide (DMSO) prior to addition of 50 mM phosphate buffered saline (pH 6.5) using vortexing and sonication to produce a colourless solution, and giving a final DMSO concentration of 5% (v/v) for each formulation. The IV formulation was filtered through a 0.22 μm syringe filter prior to dosing, whereas the IP formulation was not filtered.
The pharmacokinetics of compound 22 was studied in non-fasted male C57BL/6 mice weighing 21.1-26.5 g. Mice had access to food and water ad libitum throughout the pre- and post-dose sampling period.
Compound 22 was dosed to mice by bolus injection into the lateral tail vein (2 mL/kg) for IV administration and by injection into the IP cavity (5 mL/kg) for IP administration. After dosing, blood samples were collected up to 24 h (n=3 mice per time point) with a maximum of three samples from each mouse via submandibular bleed (approximately 120 μL). No urine samples were collected as mice were housed in bedded cages. Blood was collected into polypropylene Eppendorf tubes containing heparin as anticoagulant. Once collected, blood samples were centrifuged immediately, supernatant plasma was removed, and stored at −80 °C until analysis by liquid chromatography-mass spectrometry (LC-MS). A summary of the bioanalytical method is included in Table 5.
Concentrations of test compound in plasma and tissue samples were determined using a liquid chromatography with tandem mass spectrometry (LCMS/MS) method validated for linearity, accuracy, precision, matrix factor and recovery (refer to Table 5).
Plasma: The plasma calibration curve was prepared by spiking aliquots of blank mouse plasma (25 μL) with test compound standard solutions (5 μL) and internal standard solution (5 μL of diazepam, 5 μg/mL in 50% acetonitrile in water). Test plasma samples (25 μL) were thawed, mixed and then spiked with internal standard solution (5 μL). Plasma protein precipitation was performed by addition of acetonitrile (3-fold volume ratio) and thorough vortex mixing. Samples were centrifuged (RCF=9391×g) for 3 minutes and the supernatant (100 μL) was collected for analysis. The analysis of blood/plasma (B/P) partitioning samples was conducted similarly as for the plasma samples, using protein precipitation with acetonitrile as described above.
The plasma concentration versus time profile was defined by the average plasma concentration at each sample time, and PK parameters were calculated using non-compartmental methods (PKSolver Version 2.0). Standard calculations for each pharmacokinetic parameter are listed below.

The mark [2] stands for this setting: mouse, plasma, IP 10 mg/kg, male C57BL/6 mice.

A word on the bioavailability: it is dose-corrected exposure relative to a reference, in per cent. As usually defined, the Cmax is the peak of the concentration-time curve. In general, Tmax refers to the time at which the peak concentration occurs.

Molecules are shown by their SMILES.

For the compound `NC(=O)C1CCN(c2ncccc2CNCc2cccc3[nH]ccc23)CC1` [Compound 22], the “Reduction of neuronal cell death caused by NSP5” value with primary neurons was “greatest activity”. Moreover, in series [1] (IP 10 mg/kg, truncated AUC0-7.5 h, likely slight underestimation, 10 mg/kg, 450 min), the “BA (apparent bioavailability)” value was 47.3%. In addition, in series [1] (mouse, plasma, ip, 10 mg/kg, truncated AUC0-7.5 h, likely slight underestimation, read-out: BA (apparent bioavailability)), the bioavailability at 7.5 h is 47%. In addition, in series [1] (setting [2]), the Cmax worked out at 4.25 µM and the Tmax turned out to be 15 min. Moreover, the AUC(0-t) in series [1] (mouse, plasma, IP 10 mg/kg, male C57BL/6 mice, read-out: Plasma AUC0-last) is 2.56 µM·h.
